Reference: patent publication US9018244B2, “Benzopyran compounds, compositions and uses thereof” (Olema Pharmaceuticals, Inc., priority 2011, dated 2015)
Entries after “also recorded” stand apart in the source; their conditions may differ.

How the values were obtained:
[1] = tested on: E2-stimulated AP activity in ECC-1 cells; assay: Inhibition of E2-stimulated AP activity in ECC-1 cells (antagonist mode); assay type: cell-based, human; settings: in the presence of 500 pM E2
Excerpt: FIG. 2. Alkaline phosphatase (AP) activity in ECC-1 cells correlates with the uterine wet weight of ovariectomized rats, as reported previously in Scafonas, et al. (*; Scafonas et al. “Agonist-like SERM effects on ER alpha-mediated repression of MMPI promoter activity predict in vivo effects on bone and uterus. J Steroid Biochem Mol. Biol. 2008 110(3-5):197-206) and Labrie, et al. (†; Labrie et al. “The combination of a novel selective estrogen receptor modulator with an estrogen protects the mammary gland and uterus in a rodent model: the future of postmenopausal women's health?” Endocrinology. 2003 144(11):4700-6). ECC-1 cells were treated with 500 pM 17β-estradiol (E2) or 1-5 nM anti-estrogens in hormone-depleted medium for 3 days. Note that the racemic mixture of acolbifene, EM-343, was used in the in vitro AP assay. AP activity was measured by incubating a chromogenic AP substrate, p-nitrophenyl phosphate, at 40° C. for 40 minutes followed by measuring the absorbance at 405 nm. Results were from a single representative experiment and reported as the mean percent induction relative to E2 from triplicate treatments, with error bars representing SEM.
FIG. 6. […] A) Comparison of inhibition of E2-stimulated AP activity of various benzopyran compounds (right) compared to published reference compounds (left). ECC-1 cells were treated with 100 nM anti-estrogens in the presence of 500 pM E2 and AP activity was measured as described in FIG. 2. Note that OP-1038 was statistically different from EM-343 and Gauthier compound Ia (p<0.0001 (exact p values stated in graph), calculated using Student's t-test). Results were from a single representative experiment and reported as the mean percent induction relative to E2 from triplicate treatments, with error bars representing SEM. […] IC50's were calculated using the least squares fit method. *Aragon Compound 28 was statistically different from equivalent dose of OP-1038 (p≦0.01, calculated using Student's t-test). […]
Method for performing the alkaline phosphatase (AP) assay. […] Absorbance was read at 405 nm using a plate spectophotometer. […]

[2] = molecular target: T1, estrogen receptor alpha (ERα) (Homo sapiens, UniProt P03372); assay: ERα expression by immunoblot after anti-estrogen treatment; assay type: cell-based; settings: 100 nM anti-estrogen, 22-24 hours, serum-free medium; MCF-7 breast cells and ECC-1 endometrial cells
T1 construct: endogenous in cells
T1 sequence (P03372 1-595): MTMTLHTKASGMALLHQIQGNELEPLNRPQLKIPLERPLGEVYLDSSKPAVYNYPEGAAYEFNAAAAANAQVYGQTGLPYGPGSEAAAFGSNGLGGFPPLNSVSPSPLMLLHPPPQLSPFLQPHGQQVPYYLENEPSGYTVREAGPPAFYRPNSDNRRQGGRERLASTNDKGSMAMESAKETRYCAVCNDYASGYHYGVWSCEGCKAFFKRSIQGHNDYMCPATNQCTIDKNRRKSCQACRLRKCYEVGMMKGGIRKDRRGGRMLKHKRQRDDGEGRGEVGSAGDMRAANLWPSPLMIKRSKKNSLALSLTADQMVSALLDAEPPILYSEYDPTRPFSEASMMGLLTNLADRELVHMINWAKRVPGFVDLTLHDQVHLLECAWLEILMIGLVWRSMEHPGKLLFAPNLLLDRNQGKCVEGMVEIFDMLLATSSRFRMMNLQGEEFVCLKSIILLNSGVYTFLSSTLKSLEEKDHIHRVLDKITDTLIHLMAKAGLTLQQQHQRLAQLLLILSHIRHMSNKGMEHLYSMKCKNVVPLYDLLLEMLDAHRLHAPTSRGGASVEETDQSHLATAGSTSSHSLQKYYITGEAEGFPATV
Description: FIG. 12. […] A) ERα levels in breast cells after treatment with OP-1074 compared to treatment with model anti-estrogens. MCF-7 cells were treated with 100 nM anti-estrogen for 24 hours in serum-free medium and protein extracts immunoblotted with an antibody to ERα (D12, Santa Cruz Biotechnology, Santa Cruz, Calif.). Image is from a single representative experiment and number on top denotes the mean percent ERα expression relative to vehicle from quadruplicate treatments. B) OP-1038 induces degradation of ERα in both MCF-7 breast cells and ECC-1 endometrial cells.
ERα expression was detected in MCF-7 cell lysates treated with 100 nM anti-estrogens in serum-free medium for 22-24 hours and immunoblotted with an antibody specific to ERα as described in the legend to, and depicted in FIG. 12.

[3] = tested on: human MCF-7 breast cancer cells; assay: E2-stimulated proliferation of MCF-7 breast cancer cells; assay type: cell-based; settings: MCF-7 cells, 100 pM E2, 6-8 days
Description: FIG. 11. […] A) OP-1074 had similar potency to model anti-estrogens in inhibiting E2-stimulated proliferation of breast cells in vitro. MCF-7 cells were treated with anti-estrogens in hormone-depleted medium for 6-8 days in the presence of 100 pM E2. Proliferation was measured using Cyquant fluorescent DNA-binding dye (Invitrogen, Grand Island, N.Y.). Results were from a single representative experiment and reported as the mean percent induction relative to E2 from triplicate treatments, with error bars representing SEM. […] Results were from a single representative experiment and reported as the mean percent induction relative to E2 from triplicate treatments, with error bars representing SEM. IC50's were calculated using the least squares fit method.
Proliferation in MCF-7 was measured using a fluorescent DNA binding dye 6-8 days after treatment in triplicate with anti-estrogens in the presence of 100 pM E2 and as described in the legend to, and depicted in FIG. 11.

SMILES	Inhibition of E2-stimulated AP activity [1]	Degradation of ERα [2]	Antagonism of E2-stimulated proliferation [3]
CC1=C(c2ccc(O)cc2)C(c2ccc(OCCN3CC[C@@H](C)C3)cc2)Oc2cc(O)ccc21 (stereo partly drawn) [OP-1038, 3-(4-hydroxyphenyl)-4-methyl-2-(4-{2-[(3R)-3-methylpyrrolidin-1-yl]ethoxy}phenyl)-2H-chromen-7-ol]	more potent than Aragon Cpd. 28; also recorded: inhibit E2-stimulated AP activity; also recorded: more anti-estrogenic than EM-343 and EM-652	comparable to fulvestrant; also recorded: induce degradation	improved potency; also recorded: potent antagonists
CC1=C(c2ccc(O)cc2)[C@H](c2ccc(OCCN3CC[C@@H](C)C3)cc2)Oc2cc(O)ccc21 [OP-1074, (2S)-3-(4-hydroxyphenyl)-4-methyl-2-(4-{2-[(3R)-3-methylpyrrolidin-1-yl]ethoxy}phenyl)-2H-chromen-7-ol]	inhibit E2-stimulated AP activity; also recorded: more anti-estrogenic than EM-343 and EM-652; also recorded: inhibited E2-stimulated AP activity in a dose dependent manner	comparable to fulvestrant; also recorded: induce degradation	improved potency; also recorded: potent antagonists
